# In PubChem BioAssay AID1963869 (Molecular Pharmacology Branch, DTP, NCI, 2024):
# Test system: KRAS patient-derived spheroids with HUVEC/MSC, viability
# Experiment: Anticancer human tumor 323965-272-R-J2-PDC patient-derived pancreatic carcinoma cell line growth inhibition [KRAS2]
# Conditions: for viability, T/C: stronger effect = lower value
# Description: Multicellular complex tumor spheroid response to RAS pathway inhibitors in combination with a targeted agents in patient-derived cell lines with oncogenic KRAS variants from multiple cancer types
# A high-throughput screen of multi-cell type tumor spheroids was designed to identify active combinations of targeted small molecules and KRAS pathway inhibitors. Complex spheroids include a stromal component modeled by human endothelial cells (HUVEC) and fibroblasts modeled by human mesenchymal stem cells (MSCs). The concentration ranges selected for each drug and investigational agent were based upon clinically achievable concentrations if the clinical Cmax of the agent was known.
# Compounds. The drugs and investigational agents: BI-3406 (NSC825286), BAY-293 (NSC824723), batoprotafib (TNO155; NSC825523), sotorasib (AMG 510; NSC818433), MRTX1257 (NSC819558), elimusertib (BAY 1895344; NSC800525), molibresib (GSK525762; NSC774829), temuterkib (LY3214996; NSC803410), venetoclax (NSC766270), alisertib (NSC759677), olaparib (NSC753686), talazoparib (NSC767125), erdafitinib (NSC781556), ipatasertib (NSC767898), cabozantinib (NSC761068), nintedanib (NSC756659), abemaciclib (NSC768073), docetaxel (NSC628503), trametinib (NSC758246), and sapanisertib (NSC764658) were obtained from the National Cancer Institute (NCI) Developmental Therapeutics Program Chemical Repository. The FDA-approved anticancer drug set is available from the Developmental Therapeutics Program. […] The stock solutions were prepared in dimethyl sulfoxide (DMSO, Sigma-Aldrich, St. Louis, MO, cat. D2650) at 800-fold the tested concentration and stored at -70 degrees C prior to their use. All drugs and investigational agents were tested over a range starting from a high concentration at or near the clinical Cmax and decreasing in half-log increments. If the clinical Cmax for an agent had not been determined, the highest concentration tested was 10 microM.
# Cell Culture. All cells were maintained in an incubator at 37 degrees C and 5% CO2 with 95% humidity. The PDC lines were cultured according to standard operating procedures established by the NCI PDMR (https://pdmr.cancer.gov/sops/default.htm). Briefly, all PDCs were thawed and cultured in Matrigel-coated flasks prepared with a working solution of 1X Ham's F-12 nutrient mix, without supplementation (Invitrogen, Waltham, MA, cat. 11765054), 100 U/mL penicillin-streptomycin (Invitrogen, cat. 15140122), and 2.5% Matrigel (Corning Inc., Corning, NY, cat. 354248) for the first three passages. All PDCs were cultured in complete DMEM/F-12 media containing advanced DMEM/F-12 (Invitrogen, cat. 12634028), 4.9% defined fetal bovine serum, heat inactivated (HyClone Laboratories Inc., Logan, UT, cat. SH30070.03HI), 389 ng/mL hydrocortisone (Sigma-Aldrich, cat. H4001), 9.7 ng/mL human EGF recombinant protein (Invitrogen, cat. PHG0313), 23.4 microg/mL adenine (Sigma-Aldrich, cat. A2786), 97.3 U/mL penicillin-streptomycin (Invitrogen, cat. 15140122), 1.9 mM L-glutamine (Invitrogen, cat. 25030081), and 9.7 microM Y-27632 dihydrochloride (Tocris Bioscience, Bristol, United Kingdom, cat. 1254). The PDCs were cultured in complete DMEM/F12 media without 9.7 microM Y-27632 dihydrochloride for at least two passages prior to the screen. The established cell line HOP-62 was cultured in RPMI 1640 medium, HEPES (Invitrogen, cat. 22400105) with 10% defined fetal bovine serum (HyClone Laboratories Inc., cat. SH30070.03) and 2 mM L-glutamine (Invitrogen, cat. 25030081). The pooled donor HUVEC were cultured in endothelial cell growth medium 2 (PromoCell, Heidelberg, Germany, cat. C-22011) and the hMSC were cultured in mesenchymal stem cell growth medium 2 (PromoCell, cat. C-28009). For all experiments, HUVEC and hMSC were used at passages </=5, while the malignant cell lines were used at passages </=15. […]
# 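Note: spheroids exposed to agents for 7 days.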
# 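Throughout, for viability, T/C: 100% = DMSO vehicle control viability.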
smiles,measurement,setting,value
COc1cc(OC)cc(N(CCNC(C)C)c2ccc3ncc(-c4cnn(C)c4)nc3c2)c1,"viability, T/C",compound 0.0316 µM,102% [middle of 5 runs]
same,"viability, T/C",compound 0.1 µM,101% [middle of 5 runs]
same,"viability, T/C",compound 0.316 µM,102% [middle of 5 runs]
same,"viability, T/C",compound 1 µM,103% [middle of 5 runs]
same,"viability, T/C",compound 3.16 µM,105% [middle of 5 runs]
same,"viability, T/C",compound 10 µM,87.5% [middle of 5 runs]
same,IC50,curve of compound,> 10000 nM
CCNC(=O)CC1N=C(c2ccc(Cl)cc2)c2cc(OC)ccc2-n2c(C)nnc21 (configuration not stated) + C=CC(=O)N1CCN(c2nc(=O)n(-c3c(C)ccnc3C(C)C)c3nc(-c4c(O)cccc4F)c(F)cc23)C(C)C1,IC50,"curve of first compound, second compound 0.1 µM",116 nM
same,IC50,"curve of first compound, second compound 0.316 µM",135 nM
same,IC50,"curve of first compound, second compound 1 µM",51.8 nM
same,IC50,"curve of first compound, second compound 3.16 µM",111 nM
same,IC50,"curve of first compound, second compound 10 µM",< 31.6 nM
same,"viability, T/C","second compound 0.1 µM, first compound 0.0316 µM",54.6%
same,"viability, T/C","second compound 0.1 µM, first compound 0.1 µM",52.5%
same,"viability, T/C","second compound 0.1 µM, first compound 0.316 µM",35.9%
same,"viability, T/C","second compound 0.1 µM, first compound 1 µM",30.9%
same,"viability, T/C","second compound 0.1 µM, first compound 3.16 µM",30%
same,"viability, T/C","second compound 0.1 µM, first compound 10 µM",25.6%
same,"viability, T/C","second compound 0.316 µM, first compound 0.0316 µM",51.5%
same,"viability, T/C","second compound 0.316 µM, first compound 0.1 µM",55.5%
same,"viability, T/C","second compound 0.316 µM, first compound 0.316 µM",40%
same,"viability, T/C","second compound 0.316 µM, first compound 1 µM",31%
same,"viability, T/C","second compound 0.316 µM, first compound 3.16 µM",28.6%
same,"viability, T/C","second compound 0.316 µM, first compound 10 µM",25.7%
same,"viability, T/C","second compound 1 µM, first compound 0.0316 µM",51.3%
same,"viability, T/C","second compound 1 µM, first compound 0.1 µM",49.2%
same,"viability, T/C","second compound 1 µM, first compound 0.316 µM",40%
same,"viability, T/C","second compound 1 µM, first compound 1 µM",32.5%
same,"viability, T/C","second compound 1 µM, first compound 3.16 µM",27.6%
same,"viability, T/C","second compound 1 µM, first compound 10 µM",30.1%
same,"viability, T/C","second compound 3.16 µM, first compound 0.0316 µM",57.1%
same,"viability, T/C","second compound 3.16 µM, first compound 0.1 µM",51.9%
same,"viability, T/C","second compound 3.16 µM, first compound 0.316 µM",35.5%
same,"viability, T/C","second compound 3.16 µM, first compound 1 µM",33.6%
same,"viability, T/C","second compound 3.16 µM, first compound 3.16 µM",28.3%
same,"viability, T/C","second compound 3.16 µM, first compound 10 µM",28.3%
same,"viability, T/C","second compound 10 µM, first compound 0.0316 µM",46.4%
same,"viability, T/C","second compound 10 µM, first compound 0.1 µM",38.4%
same,"viability, T/C","second compound 10 µM, first compound 0.316 µM",27.7%
same,"viability, T/C","second compound 10 µM, first compound 1 µM",24.9%
same,"viability, T/C","second compound 10 µM, first compound 3.16 µM",20.1%
same,"viability, T/C","second compound 10 µM, first compound 10 µM",18.5%
